Test results reported in patent publication US9624170B2, “4-(piperrazin-1-yl)-pyrrolidin-2-one compounds as monoacylglycerol lipase (MAGL) inhibitors” (TAKEDA PHARMACEUTICAL COMPANY LIMITED, priority 2013, dated 2017).

The compounds below were run against T1, human MAGL (His-hMAGL) (Homo sapiens, UniProt Q99685) (assay: Measurement of MAGL inhibitory activity by mass spectrometry). Settings: MAGL inhibitory rate, test compound 10 μM, His-hMAGL, substrate 2-arachidonylglycerol, RapidFire-mass spectrometry.
T1 construct: made in house; host or cells: Escherichia coli BL21(DE3)
T1 sequence (Q99685 1-303): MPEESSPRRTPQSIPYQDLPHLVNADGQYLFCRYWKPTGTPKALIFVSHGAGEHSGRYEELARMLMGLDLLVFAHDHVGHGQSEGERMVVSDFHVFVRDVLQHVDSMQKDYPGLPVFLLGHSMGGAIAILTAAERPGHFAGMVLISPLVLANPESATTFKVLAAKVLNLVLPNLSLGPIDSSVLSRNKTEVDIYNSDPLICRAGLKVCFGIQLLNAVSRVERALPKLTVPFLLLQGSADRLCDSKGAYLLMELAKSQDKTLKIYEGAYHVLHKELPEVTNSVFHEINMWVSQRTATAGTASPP
Assay type: biochemical
Method in brief: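 His-tagged human MAGL was reacted with 150 μM 2-arachidonylglycerol substrate (stock, added by 5 μL) for 10 min at room temperature, then stopped with formic acid. Arachidonic acid product was quantified by RapidFire–triple-quadrupole MS in negative SRM mode, corrected by arachidonic acid-d8, and converted to percent inhibition.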
With `O=C(c1nccs1)N1CCN(C2CC(=O)N(c3cccc(-c4ccc(C(F)(F)F)cc4Cl)c3)C2)CC1` (stereo not shown) [Example 305, 1-(2′-chloro-4′-(trifluoromethyl)biphenyl-3-yl)-4-(4-(1,3-thiazol-2-ylcarbonyl)piperazin-1-yl)pyrrolidin-2-one] the inhibition at 10 µM was 96%.
`O=C(c1nccs1)N1CCN(C2CC(=O)N(c3cccc(-c4ccccc4N4CCOCC4)c3)C2)CC1` (stereo not shown) [Example 306, 1-(2′-(morpholin-4-yl)biphenyl-3-yl)-4-(4-(1,3-thiazol-2-ylcarbonyl)piperazin-1-yl)pyrrolidin-2-one] showed an inhibition at 10 µM of 102%.
Compound `O=C(c1nccs1)N1CCN(C2CC(=O)N(c3cccc(-c4cccc5[nH]ccc45)c3)C2)CC1` (stereo not shown) [Example 307, 1-(3-(1H-indol-4-yl)phenyl)-4-(4-(1,3-thiazol-2-ylcarbonyl)piperazin-1-yl)pyrrolidin-2-one] has an inhibition at 10 µM of 103%.
Work on `O=C(O)c1cccc(-c2cccc(N3CC(N4CCN(C(=O)c5nccs5)CC4)CC3=O)c2)c1` (stereo not shown) [Example 308, 3′-(2-oxo-4-(4-(1,3-thiazol-2-ylcarbonyl)piperazin-1-yl)pyrrolidin-1-yl)biphenyl-3-carboxylic acid] yielded an inhibition at 10 µM of 98%.
`CC(C)Oc1ccccc1-c1cccc(N2CC(N3CCN(C(=O)c4nccs4)CC3)CC2=O)c1` (stereo not shown) [Example 309, 1-(2′-isopropoxybiphenyl-3-yl)-4-(4-(1,3-thiazol-2-ylcarbonyl)piperazin-1-yl)pyrrolidin-2-one] gave an inhibition at 10 µM of 103%.
Compound `COc1cc(C(F)(F)F)ccc1-c1cccc(N2CC(N3CCN(C(=O)c4nccs4)CC3)CC2=O)c1` (stereo not shown) [Example 310, 1-(2′-methoxy-4′-(trifluoromethyl)biphenyl-3-yl)-4-(4-(1,3-thiazol-2-ylcarbonyl)piperazin-1-yl)pyrrolidin-2-one] has an inhibition at 10 µM of 98%.
With `O=C(c1nccs1)N1CCN(C2CC(=O)N(c3cccc(-c4cccc5ccccc45)c3)C2)CC1` (stereo not shown) [Example 311, 1-(3-(1-naphthyl)phenyl)-4-(4-(1,3-thiazol-2-ylcarbonyl)piperazin-1-yl)pyrrolidin-2-one] the inhibition at 10 µM was 103%.
`Cc1nn(C)c(C)c1-c1cccc(N2CC(N3CCN(C(=O)c4nccs4)CC3)CC2=O)c1` (stereo not shown) [Example 312] showed an inhibition at 10 µM of 101%.
In the case of `O=C(c1nccs1)N1CCN(C2CC(=O)N(c3cccc(-c4cccc5ccsc45)c3)C2)CC1` (stereo not shown) [Example 313, 1-(3-(1-benzothiophen-7-yl)phenyl)-4-(4-(1,3-thiazol-2-ylcarbonyl)piperazin-1-yl)pyrrolidin-2-one], the inhibition at 10 µM is reported as 101%.
For `O=C(c1nccs1)N1CCN(C2CC(=O)N(c3cccc(-c4cccc5c4OCC5)c3)C2)CC1` (stereo not shown) [Example 314, 1-(3-(2,3-dihydro-1-benzofuran-7-yl)phenyl)-4-(4-(1,3-thiazol-2-ylcarbonyl)piperazin-1-yl)pyrrolidin-2-one], the inhibition at 10 µM was 104%.
In the case of `O=C(c1nccs1)N1CCN(C2CC(=O)N(c3cccc(-c4ccc(F)c(C(F)(F)F)c4)c3)C2)CC1` (stereo not shown) [Example 315, 1-(4′-fluoro-3′-(trifluoromethyl)biphenyl-3-yl)-4-(4-(1,3-thiazol-2-ylcarbonyl)piperazin-1-yl)pyrrolidin-2-one], the inhibition at 10 µM is reported as 101%.
With `N#Cc1ccc(-c2cccc(N3CC(N4CCN(C(=O)c5nccs5)CC4)CC3=O)c2)c(F)c1` (stereo not shown) [Example 316, 2-fluoro-3′-(2-oxo-4-(4-(1,3-thiazol-2-ylcarbonyl)piperazin-1-yl)pyrrolidin-1-yl)biphenyl-4-carbonitrile] the inhibition at 10 µM was 97%.
Work on `O=C(c1nccs1)N1CCN(C2CC(=O)N(c3cccc(-c4cccc5cn[nH]c45)c3)C2)CC1` (stereo not shown) [Example 317, 1-(3-(1H-indazol-7-yl)phenyl)-4-(4-(1,3-thiazol-2-ylcarbonyl)piperazin-1-yl)pyrrolidin-2-one] yielded an inhibition at 10 µM of 99%.
`O=C(c1nccs1)N1CCN(C2CC(=O)N(c3cccc(-c4cccc5[nH]ncc45)c3)C2)CC1` (stereo not shown) [Example 318, 1-(3-(1H-indazol-4-yl)phenyl)-4-(4-(1,3-thiazol-2-ylcarbonyl)piperazin-1-yl)pyrrolidin-2-one] gave an inhibition at 10 µM of 103%.
With `NC(=O)Cc1cccc(-c2cccc(N3CC(N4CCN(C(=O)c5nccs5)CC4)CC3=O)c2)c1` (stereo not shown) [Example 319, 2-(3′-(2-oxo-4-(4-(1,3-thiazol-2-ylcarbonyl)piperazin-1-yl)pyrrolidin-1-yl)biphenyl-3-yl)acetamide] the inhibition at 10 µM was 102%.
Work on `O=C(c1nccs1)N1CCN(C2CC(=O)N(c3cccc(-c4cccc5cc[nH]c45)c3)C2)CC1` (stereo not shown) [Example 320, 1-(3-(1H-indol-7-yl)phenyl)-4-(4-(1,3-thiazol-2-ylcarbonyl)piperazin-1-yl)pyrrolidin-2-one] yielded an inhibition at 10 µM of 100%.
With `O=C(c1cccc(-c2cccc(N3CC(N4CCN(C(=O)c5nccs5)CC4)CC3=O)c2)c1)N1CCCC1` (stereo not shown) [Example 321, 1-(3′-(pyrrolidin-1-ylcarbonyl)biphenyl-3-yl)-4-(4-(1,3-thiazol-2-ylcarbonyl)piperazin-1-yl)pyrrolidin-2-one] the inhibition at 10 µM was 102%.
In the case of `Cc1cc(C#N)ccc1-c1cccc(N2CC(N3CCN(C(=O)c4nccs4)CC3)CC2=O)c1` (stereo not shown) [Example 322, 2-methyl-3′-(2-oxo-4-(4-(1,3-thiazol-2-ylcarbonyl)piperazin-1-yl)pyrrolidin-1-yl)biphenyl-4-carbonitrile], the inhibition at 10 µM is reported as 103%.
In the case of `COc1ccsc1-c1cccc(N2CC(N3CCN(C(=O)c4nccs4)CC3)CC2=O)c1` (stereo not shown) [Example 323, 1-(3-(3-methoxy-2-thienyl)phenyl)-4-(4-(1,3-thiazol-2-ylcarbonyl)piperazin-1-yl)pyrrolidin-2-one], the inhibition at 10 µM is reported as 100%.
`Cc1c(-c2cccc(N3CC(N4CCN(C(=O)c5nccs5)CC4)CC3=O)c2)cnn1C` (stereo not shown) [Example 324, 1-(3-(1,5-dimethyl-1H-pyrazol-4-yl)phenyl)-4-(4-(1,3-thiazol-2-ylcarbonyl)piperazin-1-yl)pyrrolidin-2-one] was tested, and the inhibition at 10 µM was 101%.
`Cc1nn(C)cc1-c1cccc(N2CC(N3CCN(C(=O)c4nccs4)CC3)CC2=O)c1` (stereo not shown) [Example 325, 1-(3-(1,3-dimethyl-1H-pyrazol-4-yl)phenyl)-4-(4-(1,3-thiazol-2-ylcarbonyl)piperazin-1-yl)pyrrolidin-2-one] was tested, and the inhibition at 10 µM was 101%.
In the case of `Cn1ncc2c(-c3cccc(N4CC(N5CCN(C(=O)c6nccs6)CC5)CC4=O)c3)cccc21` (stereo not shown) [Example 326, 1-(3-(1-methyl-1H-indazol-4-yl)phenyl)-4-(4-(1,3-thiazol-2-ylcarbonyl)piperazin-1-yl)pyrrolidin-2-one], the inhibition at 10 µM is reported as 105%.
`O=C(c1nccs1)N1CCN(C2CC(=O)N(c3cccc(-c4c[nH]nc4C(F)(F)F)c3)C2)CC1` (stereo not shown) [Example 327, 4-(4-(1,3-thiazol-2-ylcarbonyl)piperazin-1-yl)-1-(3-(3-(trifluoromethyl)-1H-pyrazol-4-yl)phenyl)pyrrolidin-2-one] was tested, and the inhibition at 10 µM was 100%.
`O=C(c1nccs1)N1CCN(C2CC(=O)N(c3cccc(-c4coc5ccccc45)c3)C2)CC1` (stereo not shown) [Example 328, 1-(3-(1-benzofuran-3-yl)phenyl)-4-(4-(1,3-thiazol-2-ylcarbonyl)piperazin-1-yl)pyrrolidin-2-one] gave an inhibition at 10 µM of 102%.
`O=C(c1nccs1)N1CCN(C2CC(=O)N(c3cccc(-c4cccc5ccoc45)c3)C2)CC1` (stereo not shown) [Example 329, 1-(3-(1-benzofuran-7-yl)phenyl)-4-(4-(1,3-thiazol-2-ylcarbonyl)piperazin-1-yl)pyrrolidin-2-one] was tested, and the inhibition at 10 µM was 104%.
